Laboratory results: the NIST ThermoML archive (doi:10.1021/je0603325)

Experiment: xn = mol fraction of the nth substance listed
Conditions: 101 kPa, Liquid

BrCCBr [1,2-dibromoethane] + CCCCCCC
Conditions	mass density [kg/m3]	speed of sound [m/s]
292.6 K, x1 = 0.6005	–	996.77
292.62 K, x1 = 0.2	–	1079.5
292.64 K, x1 = 0.1024	–	1112.1
292.64 K, x1 = 0.2986	–	1050.8
292.66 K, x1 = 0.6997	–	989.87
292.68 K, x1 = 0.4002	–	1027.2
292.68 K, x1 = 0.8004	–	989.25
292.7 K, x1 = 0.4996	–	1009.4
292.7 K, x1 = 0.9061	–	995.84
292.84 K, x1 = 1	–	1007.5
293.15 K, x1 = 0.1018	776.01	–
293.15 K, x1 = 0.2052	878.46	–
293.15 K, x1 = 0.2931	973.9	–
293.15 K, x1 = 0.3754	1070.54	–
293.15 K, x1 = 0.3919	1091.09	–
293.15 K, x1 = 0.5009	1234.71	–
293.15 K, x1 = 0.5993	1379.31	–
293.15 K, x1 = 0.6916	1530.51	–
293.15 K, x1 = 0.7886	1707.97	–
293.15 K, x1 = 0.8919	1922	–
293.15 K, x1 = 1	2178.77	–
298.15 K, x1 = 0.1018	771.16	–
298.15 K, x1 = 0.2052	872.98	–
298.15 K, x1 = 0.2931	968	–
298.15 K, x1 = 0.3754	1064.3	–
298.15 K, x1 = 0.3919	1084.74	–
298.15 K, x1 = 0.5009	1227.73	–
298.15 K, x1 = 0.5993	1372.04	–
298.15 K, x1 = 0.6916	1522.49	–
298.15 K, x1 = 0.7886	1699.34	–
298.15 K, x1 = 0.8919	1912.55	–
298.15 K, x1 = 1	2168.41	–
298.56 K, x1 = 0.1024	–	1088
298.56 K, x1 = 0.9061	–	980
298.58 K, x1 = 0.2	–	1056.5
298.59 K, x1 = 0.4996	–	990.17
298.59 K, x1 = 0.6005	–	978.03
298.6 K, x1 = 0.4002	–	1006.7
298.6 K, x1 = 0.6997	–	972.29
298.68 K, x1 = 0.8004	–	972.17
298.69 K, x1 = 0.2986	–	1028.6
299.17 K, x1 = 1	–	991.14
303.15 K, x1 = 0.1018	766.4	–
303.15 K, x1 = 0.2052	867.72	–
303.15 K, x1 = 0.2931	962.23	–
303.15 K, x1 = 0.3754	1058	–
303.15 K, x1 = 0.3919	1078.36	–
303.15 K, x1 = 0.5009	1220.93	–
303.15 K, x1 = 0.5993	1364.69	–
303.15 K, x1 = 0.6916	1514.35	–
303.15 K, x1 = 0.7886	1690.56	–
303.15 K, x1 = 0.8919	1903.13	–
303.15 K, x1 = 1	2157.94	–
303.37 K, x1 = 1	–	980.18
303.54 K, x1 = 0.4002	–	989.74
303.57 K, x1 = 0.9061	–	966.53
303.59 K, x1 = 0.1024	–	1067.7
303.61 K, x1 = 0.2	–	1037.2
303.61 K, x1 = 0.6997	–	957.6
303.62 K, x1 = 0.6005	–	962.51
303.65 K, x1 = 0.2986	–	1010.6
303.66 K, x1 = 0.4996	–	973.72
303.78 K, x1 = 0.8004	–	957.87
308.15 K, x1 = 0.1018	761.38	–
308.15 K, x1 = 0.2052	862.14	–
308.15 K, x1 = 0.2931	956.31	–
308.15 K, x1 = 0.3754	1051.8	–
308.15 K, x1 = 0.3919	1071.93	–
308.15 K, x1 = 0.5009	1213.97	–
308.15 K, x1 = 0.5993	1357.19	–
308.15 K, x1 = 0.6916	1506.3	–
308.15 K, x1 = 0.7886	1681.76	–
308.15 K, x1 = 0.8919	1893.55	–
308.15 K, x1 = 1	2147.47	–
308.44 K, x1 = 0.9061	–	953.47
308.57 K, x1 = 0.6997	–	943.03
308.58 K, x1 = 0.4002	–	972.63
308.59 K, x1 = 0.6005	–	947.22
308.59 K, x1 = 0.8004	–	944.46
308.62 K, x1 = 0.1024	–	1047.4
308.62 K, x1 = 0.2986	–	992.63
308.65 K, x1 = 0.2	–	1018
308.75 K, x1 = 1	–	966.56
309.57 K, x1 = 0.4996	–	954.55
313.15 K, x1 = 0.1018	756.39	–
313.15 K, x1 = 0.2052	856.68	–
313.15 K, x1 = 0.2931	950.37	–
313.15 K, x1 = 0.3754	1045.35	–
313.15 K, x1 = 0.3919	1065.57	–
313.15 K, x1 = 0.5009	1207.14	–
313.15 K, x1 = 0.5993	1349.51	–
313.15 K, x1 = 0.6916	1498.2	–
313.15 K, x1 = 0.7886	1673.14	–
313.15 K, x1 = 0.8919	1884.12	–
313.15 K, x1 = 1	2136.96	–
314.45 K, x1 = 1	–	952
314.52 K, x1 = 0.9061	–	937.35
314.55 K, x1 = 0.6997	–	925.53
314.56 K, x1 = 0.2	–	995.72
314.58 K, x1 = 0.4002	–	952.25
314.58 K, x1 = 0.8004	–	927.74
314.59 K, x1 = 0.1024	–	1023.6
314.59 K, x1 = 0.4996	–	938.54
314.59 K, x1 = 0.6005	–	928.96
314.61 K, x1 = 0.2986	–	971.18
